According to US10448639B2, “Fungicidal pyrazoles” (FMC CORPORATION, priority 2009, dated 2019):

Columns and labels:
[1] = test system: Puccinia recondita f. sp. tritici; test: Test I: wheat leaf rust, preventive spray on wheat seedlings, visual disease rating; settings: for Test I rating (% disease control) / Test I disease control rating: wheat leaf rust, 100 = 100% disease control; for Test I disease control rating: sprayed the day before inoculation, 0 = no disease control relative to controls
Botrytis cinerea = test: Test B: tomato Botrytis, preventive spray on tomato seedlings, visual disease rating; settings: for Test B rating (% disease control) / Test B disease control rating: tomato Botrytis, 100 = 100% disease control; for Test B disease control rating: 0 = no disease control relative to controls
Septoria tritici = test: Test G: wheat leaf blotch, preventive spray on wheat seedlings, visual disease rating; settings: for Test G rating (% disease control) / Test G disease control rating: wheat leaf blotch, 100 = 100% disease control; for Test G disease control rating: sprayed the day before inoculation, 0 = no disease control relative to controls
Alternaria solani = test: Test C: tomato early blight, preventive spray on tomato seedlings, visual disease rating; settings: for Test C rating (% disease control) / Test C disease control rating: tomato early blight, 100 = 100% disease control; for Test C disease control rating: 0 = no disease control relative to controls
Text: General protocol for preparing test suspensions for Tests A-J: the test compounds were first dissolved in acetone in an amount equal to 3% of the final volume and then suspended at the desired concentration (in ppm) in acetone and purified water (50/50 mix by volume) containing 250 ppm of the surfactant Trem® 014 (polyhydric alcohol esters). The resulting test suspensions were then used in Tests A-J. Spraying a 200 ppm test suspension to the point of run-off on the test plants was the equivalent of a rate of 500 g/ha. Unless otherwise indicated, the rating values indicate a 200 ppm test suspension was used. (An asterisk “*” next to the rating value indicates a 40 ppm test suspension was used.)
The test suspension was sprayed to the point of run-off on tomato seedlings. The following day the seedlings were inoculated with a spore suspension of Alternaria solani (the causal agent of tomato early blight) and incubated in a saturated atmosphere at 27° C. for 48 h, and then moved to a growth chamber at 20° C. for 5 days, after which time visual disease ratings were made.

[2] = test system: Erysiphe graminis f sp. tritici; test: Test J: wheat powdery mildew, preventive spray on wheat seedlings, visual disease rating; settings: for Test J rating (% disease control) / Test J disease control rating: wheat powdery mildew, 100 = 100% disease control; for Test J disease control rating: sprayed the day before inoculation, 0 = no disease control relative to controls
Septoria nodorum = test: Test F: Septoria glume blotch, preventive spray on wheat seedlings, visual disease rating; settings: for Test F rating (% disease control) / Test F disease control rating: 100 = 100% disease control; for Test F disease control rating: 0 = no disease control relative to controls
[3] = test system: Puccinia recondita f. sp. tritici; test: Test H: wheat leaf rust, curative spray on inoculated wheat seedlings, visual disease rating; settings: for Test H rating (% disease control) / Test H disease control rating: wheat leaf rust, 100 = 100% disease control; for Test H disease control rating: sprayed after inoculation, 0 = no disease control relative to controls
[4] = preventive, 0 = no control relative to controls
[5] = 0 = no control relative to controls
[6] = Septoria glume blotch, 0 = no control relative to controls
[7] = curative, 0 = no control relative to controls
[8] = preventive spray, 0 = no control
[9] = Septoria glume blotch on wheat, preventive spray, 0 = no control

| Compound | Test I rating (% disease control) [1, 4] [%] | Test B rating (% disease control) (Botrytis cinerea; [5]) [%] | Test G rating (% disease control) (Septoria tritici; [5]) [%] | Test C rating (% disease control) (Alternaria solani; [5]) [%] | Test J rating (% disease control) [2, 5] [%] | Test F rating (% disease control) (Septoria nodorum; [6]) [%] | Test H rating (% disease control) [3, 7] [%] | Test I rating (% disease control) [1, 8] [%] | Test B rating (% disease control) (Botrytis cinerea; [8]) [%] | Test G rating (% disease control) (Septoria tritici; [8]) [%] | Test C rating (% disease control) (Alternaria solani; [8]) [%] | Test J rating (% disease control) [2, 8] [%] | Test F rating (% disease control) (Septoria nodorum; [9]) [%] | Test H rating (% disease control) ([3]; curative spray, 0 = no control) [%] | further results |
| --- | --- | --- | --- | --- | --- | --- | --- | --- | --- | --- | --- | --- | --- | --- | --- |
| COc1ccc(-c2c(C)nn(C)c2Oc2c(F)cc(C#N)cc2F)c(Cl)c1 [compound 155] | 100 | 100 | 100 | 99 | 99 | 100 | 92 | – | – | – | – | – | – | – | – |
| Cc1nn(C)c(Nc2c(Cl)cc(F)cc2Cl)c1-c1c(Cl)cccc1Cl [compound 341] | – | – | – | – | – | – | – | – | – | – | – | – | – | – | Test I disease control rating [1]: 99%; Test B disease control rating (Botrytis cinerea): 99%; Test G disease control rating (Septoria tritici): 99%; Test C disease control rating (Alternaria solani): 0%; Test J disease control rating [2]: 93%; Test F disease control rating (Septoria nodorum; Septoria glume blotch on wheat): 0%; Test H disease control rating [3]: 0% |
| Cc1nn(C)c(Nc2c(F)cc(C#N)cc2F)c1-c1c(F)cc(F)cc1F [compound 92] | – | – | – | – | – | – | – | 99 | 100 | 100 | 100 | 100 | 99 | 41 | – |
| COc1cccc(Oc2c(-c3c(F)cc(F)cc3F)c(C)nn2C)c1 [compound 213] | 96 | 97 | 85 | 30 | 100 | 0 | 94 | – | – | – | – | – | – | – | – |
| Cc1ccc(Oc2c(-c3c(F)cc(F)cc3F)c(C)nn2C)cc1C [compound 209] | 0 | 0 | 0 | 0 | 97 | 0 | 0 | – | – | – | – | – | – | – | – |
| Cc1nn(C)c(Oc2ccc(C#N)cc2F)c1-c1ccc(F)cc1Cl [Compound 118, 4-[[4-(2-chloro-4-fluorophenyl)-1,3-dimethyl-1H-pyrazol-5-yl]oxy]-3-fluorobenzonitrile] | – | – | – | – | – | – | – | – | – | – | – | – | – | – | pest or weed control at 200 µg/mL ([1]; 192 h, read-out: Test I rating (% disease control)): 100%; pest or weed control at 200 µg/mL (Botrytis cinerea; Botrytis cinerea, in Solanum lycopersicum, 120 h, read-out: Test B rating (% disease control)): 100%; pest or weed control at 200 µg/mL (Septoria tritici; Zymoseptoria tritici, in Triticum aestivum, 504 h, read-out: Test G rating (% disease control)): 100%; pest or weed control at 200 µg/mL (Alternaria solani; Alternaria solani, in Solanum lycopersicum, 168 h, read-out: Test C rating (% disease control)): 100%; pest or weed control at 200 µg/mL ([2]; Blumeria graminis, in Triticum aestivum, 192 h, read-out: Test J rating (% disease control)): 99%; pest or weed control at 200 µg/mL (Septoria nodorum; Parastagonospora nodorum, in Triticum aestivum, 192 h, read-out: Test F rating (% disease control)): 98%; pest or weed control at 200 µg/mL ([3]; 144 h, read-out: Test H rating (% disease control)): 99% |
| COc1ccc(-c2c(C)nn(C)c2Oc2c(F)cc(C#N)cc2F)c(F)c1 [compound 46] | – | – | – | – | – | – | – | 100 | 99 | 100 | 100 | 99 | 99 | 37 | – |
| COc1cc(F)c(-c2c(C)nn(C)c2Oc2ccc(C)c(F)c2)c(F)c1 [compound 188] | 97 | 87 | 100 | 0 | 97 | 0 | 0 | – | – | – | – | – | – | – | – |
| COc1cc(F)c(Nc2c(-c3ccc(Cl)cc3)c(C)nn2C)c(F)c1 [compound 29] | – | – | – | – | – | – | – | 46 | 94 | 98 | 0 | 0 | 0 | 0 | – |
| COc1cc(F)c(-c2c(C)nn(C)c2Oc2cccc(C)c2)c(F)c1 [compound 220] | 99 | 98 | 98 | 97 | 100 | 40 | 40 | – | – | – | – | – | – | – | – |
| Cc1nn(C)c(Oc2ccc([N+](=O)[O-])cc2F)c1-c1ccc(F)cc1Cl [compound 20] | – | – | – | – | – | – | – | 100 | 100 | 100 | 99 | 99 | 100 | 79 | – |
| Cc1nn(C)c(Nc2ccc(F)cc2F)c1-c1c(F)cccc1Cl [compound 177] | 83 | 100 | 98 | 100 | 100 | 73 | 0 | – | – | – | – | – | – | – | – |
| Cc1nn(C)c(Oc2cc(F)c(C#N)cc2F)c1-c1c(F)cc(F)cc1F [compound 99] | – | – | – | – | – | – | – | 100 | 100 | 99 | 99 | 100 | 100 | 40 | – |
| COc1cccc(Nc2c(-c3c(F)cccc3F)c(C)nn2C)c1 [compound 200] | 0 | 82 | 97 | 0 | 94 | 0 | 0 | – | – | – | – | – | – | – | – |
| Cc1nn(C)c(Oc2ccc(Cl)cn2)c1-c1c(F)cc(F)cc1F [compound 39] | – | – | – | – | – | – | – | 99 | 100 | 99 | 99 | 99 | 0 | 99 | – |
| Cc1nn(C)c(Nc2ncc(F)cc2F)c1-c1c(F)cccc1Cl [compound 279] | 98 | 100 | 100 | 99 | 100 | 0 | 8 | – | – | – | – | – | – | – | – |
| COc1ccc(Cl)c(-c2c(C)nn(C)c2Oc2c(F)cc(C#N)cc2F)c1 [compound 277] | 96 | 100 | 100 | 0 | 98 | 0 | 0 | – | – | – | – | – | – | – | – |
| Cc1ccc(Oc2c(-c3c(F)cc(F)cc3F)c(C)nn2C)cc1F [compound 187] | 9 | 33 | 20 | 0 | 13 | 0 | 0 | – | – | – | – | – | – | – | – |
| Cc1nn(C)c(Nc2ncc(Cl)cc2Cl)c1-c1ccccc1Cl [compound 320] | – | – | – | – | – | – | – | – | – | – | – | – | – | – | Test I disease control rating [1]: 99%; Test B disease control rating (Botrytis cinerea): 99%; Test G disease control rating (Septoria tritici): 100%; Test C disease control rating (Alternaria solani): 67%; Test J disease control rating [2]: 98%; Test F disease control rating (Septoria nodorum; Septoria glume blotch on wheat): 0%; Test H disease control rating [3]: 0% |
| Cc1nn(C)c(Nc2ccc(F)c(C#N)c2)c1-c1ccc(F)cc1Cl [compound 234] | 92 | 99 | 99 | 0 | 84 | 0 | 0 | – | – | – | – | – | – | – | – |
